According to patent publication US12612388B2, “Receptor-interacting protein 1 inhibitors including piperazine heterocyclic amide ureas” (SIRONAX LTD., priority 2020, dated 2026):

These molecules were tested on HT-29 cells (assay: Cellular RIP1 inhibitory activity: necroptosis of HT-29 cells induced by TNF-α/SMAC mimetic/zVAD-FMK, CellTiter-Glo viability). Conditions: Homo sapiens; HT-29 cells; TNF-α 10 ng/ml, SMAC mimetic 6 μM, zVAD-FMK 10 μM; 20 hours; geometric mean, 10 points, duplicates; read-out: EC50 (Cell activity; Necrosis or Necroptosis Inhibitory Activity).
Type: cell-based
Procedure: In Table 2, activity is provided as follows: +++=0.1 nM≤EC50<100 nM; ++=100 nM≤EC50K<1000 nM; +=1000 nM≤EC50K<10000 nM.
Compounds 1-67 (denoted as Compound Nos. 1 through 67 in Table 1) of the disclosure were tested for binding and cellular RIP1 inhibitory activity following the experimental procedures described below.
Cell line: HT-29 (ATCC® HTB-38™)
Culture medium: McCOY's 5A, Gibco, Cat No. 16600-082
DMSO: Sigma, Cat No. 67-68-5, 1 L
Assay plate: Corning #3903
Compound dilution plate: Corning #3357
Inducers: TNFα, GenScript, Cat No. Z01001-50,
SmacM, Cat. No., HY-15989, MedChemExpress (MCE)
Z_VAD FMK, TargetMol, T6013
Cell Titer-Glo® Luminescent Cell Viability Assay Kit: Promega, Cat No. G7573
1. HT-29 cells were checked every day to make sure that they were healthy and growing as expected. They were subjected to sub-culturing when they were approximately 80% confluent.
2. The culture medium, McCOY's 5A medium (Gibco, Cat No. 16600-082) with 10% fetal bovine serum or FBS (Gibco, Cat No. 10099-141C), was pre-warmed in a 37° C. water bath for at least 30 min.
3. When the cells had reached a desired level of confluency of 80% in a T75 flask, the medium was aspirated, and the cells were washed with warm phosphate buffered saline or PBS two times.
4. 2-3 ml fresh warm trypsin (Gibco, Cat No. 25200-056) solution was added to the washed cells. The flask with the cells was transferred to a 37° C. incubator.
5. After 5 minutes, the side of the flask was tapped, and the flask was examined under a microscope for detachment of the cells to the flask. If necessary, the cells were kept in the incubator for an additional 5-10 minutes, with occasional tapping, until lifting was complete.
6. The trypsin reaction was neutralized by transferring 6-9 ml cell culture medium to sterile 15 ml conical tubes, and by centrifuging the cell culture at 300×g for 7 minutes to pellet the cells (supernatant decanted).
7. The cells were resuspended in fresh cell culture medium and the cell counting was performed using a hemocytometer.
8. 100 μl of the resuspended cell culture medium containing ˜5,000 cells were transferred into each well of the sterile 96-well cell culture plate (Corning 3903) and cultured overnight at 37° C. with 5% CO2.
Compound Titration and Treatment
1. All test compounds were dissolved in DMSO (Dimethyl sulfoxide) to create a 20 mM stock.
2. 3 μl of each compound 20 mM stock was mixed with 27 μl DMSO, and the compound solution was further diluted at a titration ratio of 1:3 (20 μl compound solution+40 μl DMSO) till the 10 points end.
3. All culture medium was removed from assay plates filled with HT-29 cell cultures. The cells were then washed with 1 PBS, and resuspended in fresh, FBS-free McCOY's 5A medium containing a cocktail of TNF-α (10 ng/ml), a SMAC mimetic compound (6 μM) and Z-VAD-fluoromethylketone or zVAD-FMK (10 μM) to stimulate the HT-29 cells to increase RIP1 kinase levels and necroptosis.
4. 0.5 μL of the diluted compound solution was added to the corresponding 96-well assay plates.
5. The assay plates were incubated for 20 hours at 37° C. with 5% CO2.
1. The CellTiter-Glo® Luminescent Cell Viability Assay was employed to detect the ATP levels of viable HT-29 cells.
2. The CellTiter-Glo® buffer and the lyophilized substrate were equilibrated to room temperature prior to use.
3. The CellTiter-Glo® substrate was resuspended with CellTiter-Glo® buffer, then mixed by gently vortexing to obtain a homogeneous solution.
4. 20 μl the enzyme/substrate mixture was transferred by multi-channel pipetting into 96-well assay plates.
5. The assay plates were placed on an orbital shaker and the contents were shaken for 3 minutes to induce cell lysis.
6. The assay plates were incubated at room temperature for 10 minutes to stabilize the luminescent signal.
7. The luminescence signals were read and recorded with EnVision.
8. The geometric mean EC50 values were calculated from 10 points response dose with duplicates. […]

`CN(C)C1CN(C(=O)c2nc(N3CCN(C(=O)N4N=CC[C@H]4c4cc(F)cc(F)c4)CC3)ncc2F)C1` [Compound 33, (S)-(5-(3,5-difluorophenyl)-4,5-dihydro-1H-pyrazol-1-yl)(4-(4-(3-(dimethylamino)azetidine-1-carbonyl)-5-fluoropyrimidin-2-yl)piperazin-1-yl)methanone] was tested. Which EC50 did it give?
Its EC50 is 0.1 to 100 nM.

How did the EC50 turn out when `CCN(O)C(=O)c1nc(N2CCN(C(=O)N3N=CC[C@H]3c3cc(F)cc(F)c3)CC2)ncc1F` [Compound 11, (S)-2-(4-(5-(3,5-difluorophenyl)-4,5-dihydro-1H-pyrazole-1-carbonyl)piperazin-1-yl)-N-ethyl-5-fluoro-N-hydroxypyrimidine-4-carboxamide] was run?
Its EC50 is 0.1 to 100 nM.

Which EC50 does the source give for `CN(C)[C@H]1CCN(C(=O)c2nc(N3CCN(C(=O)N4N=CC[C@H]4c4cc(F)cc(F)c4)CC3)ncc2F)C1` [Compound 31, ((S)-5-(3,5-difluorophenyl)-4,5-dihydro-1H-pyrazol-1-yl)(4-(4-((S)-3-(dimethylamino)pyrrolidine-1-carbonyl)-5-fluoropyrimidin-2-yl)piperazin-1-yl)methanone] here?
The EC50 was 0.1 to 100 nM.

Which EC50 does the source give for `O=C(O)c1nc(N2CCN(C(=O)N3N=CC[C@H]3c3cc(F)cc(F)c3)CC2)ncc1F` [Compound 1, (S)-2-(4-(5-(3,5-difluorophenyl)-4,5-dihydro-1H-pyrazole-1-carbonyl)piperazin-1-yl)-5-fluoropyrimidine-4-carboxylic acid] here?
Its EC50 is 1000 to 10000 nM.

For `CCOC(=O)c1nc(N2CCN(C(=O)N3N=CC[C@H]3c3cc(F)cc(F)c3)CC2)ncc1F` [Compound 47], which EC50 is on record?
The EC50 was 0.1 to 100 nM.

For `CN(C)C(=O)c1nc(N2CCN(C(=O)N3N=CC[C@H]3c3cc(F)cc(F)c3)CC2)ncc1F` [Compound 5, 2-(4-(5-(3,5-difluorophenyl)-4,5-dihydro-1H-pyrazole-1-carbonyl)piperazin-1-yl)-5-fluoro-N,N-dimethylpyrimidine-4-carboxamide], which EC50 is on record?
Its EC50 is 0.1 to 100 nM.

`CCOC1CN(C(=O)c2nc(N3CCN(C(=O)N4N=CC[C@H]4c4cc(F)cc(F)c4)CC3)ncc2F)C1` [Compound 23, (S)-(5-(3,5-difluorophenyl)-4,5-dihydro-1H-pyrazol-1-yl)(4-(4-(3-ethoxyazetidine-1-carbonyl)-5-fluoropyrimidin-2-yl)piperazin-1-yl)methanone] was tested. Which EC50 did it give?
Its EC50 is 0.1 to 100 nM.

For `COC1CN(C(=O)c2nc(N3CCN(C(=O)N4N=CCC4c4cncc(Cl)c4)CC3)ncc2F)C1` (stereo not drawn) [Compound 66, (5-(5-chloropyridin-3-yl)-4,5-dihydro-1H-pyrazol-1-yl)(4-(5-fluoro-4-(3-methoxyazetidine-1-carbonyl)pyrimidin-2-yl)piperazin-1-yl)methanone], which EC50 is on record?
The EC50 was 0.1 to 100 nM.

For `O=C(c1nc(N2CCN(C(=O)N3N=CC[C@H]3c3cc(F)cc(F)c3)CC2)ncc1F)N1CC(F)(F)C1` [Compound 12, (S)-(3,3-difluoroazetidin-1-yl)(2-(4-(5-(3,5-difluorophenyl)-4,5-dihydro-1H-pyrazole-1-carbonyl)piperazin-1-yl)-5-fluoropyrimidin-4-yl)methanone], which EC50 is on record?
Its EC50 is 0.1 to 100 nM.

With `CN(C)CC1CN(C(=O)c2nc(N3CCN(C(=O)N4N=CC[C@H]4c4cc(F)cc(F)c4)CC3)ncc2F)C1` [Compound 28, (S)-(5-(3,5-difluorophenyl)-4,5-dihydro-1H-pyrazol-1-yl)(4-(4-(3-((dimethylamino)methyl)azetidine-1-carbonyl)-5-fluoropyrimidin-2-yl)piperazin-1-yl) methanone] as the molecule, how does the EC50 read?
The EC50 was 0.1 to 100 nM.

For `CC1CN(C(=O)c2nc(N3CCN(C(=O)N4N=CC[C@H]4c4cc(F)cc(F)c4)CC3)ncc2F)C1` [Compound 56, (S)-(5-(3,5-difluorophenyl)-4,5-dihydro-1H-pyrazol-1-yl)(4-(5-fluoro-4-(3-methylazetidine-1-carbonyl)pyrimidin-2-yl)piperazin-1-yl)methanone], which EC50 is on record?
Its EC50 is 0.1 to 100 nM.

For `O=C(c1nc(N2CCN(C(=O)N3N=CC[C@H]3c3cc(F)cc(F)c3)CC2)ncc1F)N1CCOCC1` [Compound 18, (5-(3,5-difluorophenyl)-4,5-dihydro-1H-pyrazol-1-yl)(4-(5-fluoro-4-(morpholine-4-carbonyl)pyrimidin-2-yl)piperazin-1-yl)methanone], which EC50 is on record?
Its EC50 is 0.1 to 100 nM.

With `NC(=O)c1nc(N2CCN(C(=O)N3N=CC[C@H]3c3cc(F)cc(F)c3)CC2)ncc1F` [Compound 48, (S)-2-(4-(5-(3,5-difluorophenyl)-4,5-dihydro-1H-pyrazole-1-carbonyl)piperazin-1-yl)-5-fluoropyrimidine-4-carboxamide] as the molecule, how does the EC50 read?
Its EC50 is 0.1 to 100 nM.

With `NC(=O)c1ccnc(N2CCN(C(=O)N3N=CC[C@H]3c3ccccc3)CC2)n1` [Compound 41, (S)-2-(4-(5-phenyl-4,5-dihydro-1H-pyrazole-1-carbonyl)piperazin-1-yl)pyrimidine-4-carboxamide] as the molecule, how does the EC50 read?
The EC50 was 0.1 to 100 nM.

For `COC1CN(C(=O)c2nc(N3CCN(C(=O)N4N=CC[C@H]4c4cc(F)cc(F)c4)CC3)ncc2F)C1` [Compound 21, (S)-(5-(3,5-difluorophenyl)-4,5-dihydro-1H-pyrazol-1-yl)(4-(5-fluoro-4-(3-methoxyazetidine-1-carbonyl)pyrimidin-2-yl)piperazin-1-yl)methanone], which EC50 is on record?
The EC50 was 0.1 to 100 nM.

How did the EC50 turn out when `NC(=O)[C@@H]1CCN(C(=O)c2nc(N3CCN(C(=O)N4N=CC[C@H]4c4cc(F)cc(F)c4)CC3)ncc2F)C1` [Compound 27, (R)-1-(2-(4-((S)-5-(3,5-difluorophenyl)-4,5-dihydro-1H-pyrazole-1-carbonyl)piperazin-1-yl)-5-fluoropyrimidine-4-carbonyl)pyrrolidine-3-carboxamide] was run?
The EC50 was 0.1 to 100 nM.

With `COC1CN(C(=O)c2nc(N3CCN(C(=O)N4N=CC[C@H]4c4cc(F)cc(C#N)c4)CC3)ncc2F)C1` [Compound 51, (S)-3-fluoro-5-(1-(4-(5-fluoro-4-(3-methoxyazetidine-1-carbonyl)pyrimidin-2-yl)piperazine-1-carbonyl)-4,5-dihydro-1H-pyrazol-5-yl)benzonitrile] as the molecule, how does the EC50 read?
The EC50 was 0.1 to 100 nM.

With `CONC(=O)c1nc(N2CCN(C(=O)N3N=CC[C@H]3c3cc(F)cc(F)c3)CC2)ncc1F` [Compound 3, (S)-2-(4-(5-(3,5-difluorophenyl)-4,5-dihydro-1H-pyrazole-1-carbonyl)piperazin-1-yl)-5-fluoro-N-methoxypyrimidine-4-carboxamide] as the molecule, how does the EC50 read?
Its EC50 is 100 to 1000 nM.

With `CN(C)[C@@H]1CCN(C(=O)c2nc(N3CCN(C(=O)N4N=CC[C@H]4c4cc(F)cc(F)c4)CC3)ncc2F)C1` [Compound 32, ((S)-5-(3,5-difluorophenyl)-4,5-dihydro-1H-pyrazol-1-yl)(4-(4-((R)-3-(dimethylamino)pyrrolidine-1-carbonyl)-5-fluoropyrimidin-2-yl)piperazin-1-yl)methanone] as the molecule, how does the EC50 read?
Its EC50 is 0.1 to 100 nM.

`COC1CN(C(=O)c2nc(N3CCN(C(=O)N4N=CC[C@H]4c4cncc(F)c4)CC3)ncc2F)C1` [Compound 52, (S)-(5-fluoro-2-(4-(5-(5-fluoropyridin-3-yl)-4,5-dihydro-1H-pyrazole-1-carbonyl)piperazin-1-yl)pyrimidin-4-yl)(3-methoxyazetidin-1-yl)methanone] was tested. Which EC50 did it give?
The EC50 was 0.1 to 100 nM.

How did the EC50 turn out when `COc1cnc(N2CCN(C(=O)N3N=CC[C@H]3c3cc(F)cc(F)c3)CC2)nc1C(N)=O` [Compound 62, (S)-2-(4-(5-(3,5-difluorophenyl)-4,5-dihydro-1H-pyrazole-1-carbonyl)piperazin-1-yl)-5-methoxypyrimidine-4-carboxamide] was run?
Its EC50 is 100 to 1000 nM.
